Series [1] in a line: Antisnake venom activity against Echis carinatus venom assessed as mortality at 1.25 mg/kg preincubated for 30 mins with venom LD50 before subcutaneous administration to Swiss albino mouse measured within 24 hrs. The class given is functional.
Series [2] in a line: Antisnake venom activity against Echis carinatus venom assessed as mortality at 3.75 mg/kg preincubated for 30 mins with venom LD50 before subcutaneous administration to Swiss albino mouse measured within 24 hrs. The class given is functional.
The next series relates to Mus musculus. The experiment in a line: Toxicity in Swiss albino mouse up to 100 mg/kg, sc. The class given is organism-based. On the set-up: dose 100 mg/kg, route subcutaneous. Particulars: in vivo.
Series [3] is described as follows: Antisnake venom activity against Echis carinatus venom assessed as mortality at 2.50 mg/kg preincubated for 30 mins with venom LD50 before subcutaneous administration to Swiss albino mouse measured within 24 hrs. The class given is functional. Particulars: dose 2.5 mg/kg.
Series [4] is described as follows: Curative activity against Echis carinatus venom assessed as mortality at 3.75 mg/kg, sc administered 5 mins after injection of venom to Swiss albino mouse measured within 24 hrs. The class given is functional. Particulars: route subcutaneous.
The nature of series [5]: Curative activity against Echis carinatus venom assessed as mortality at 3.75 mg/kg, sc administered 30 mins after injection of venom to Swiss albino mouse measured within 24 hrs. The class given is functional. Particulars: route subcutaneous.
A short description of series [6]: Curative activity against Echis carinatus venom assessed as mortality at 3.75 mg/kg, sc administered 45 mins after injection of venom to Swiss albino mouse measured within 24 hrs. The class given is functional. Particulars: route subcutaneous.
The nature of series [7]: Prophylactic activity against Echis carinatus venom assessed as mortality at 3.75 mg/kg, sc administered 30 mins before injection of venom to Swiss albino mouse measured within 24 hrs. The class given is functional. Particulars: route subcutaneous.

Experimental findings from ChEMBL document CHEMBL1158269, “Ehretianone, a novel quinonoid xanthene from Ehretia buxifolia with antisnake venom activity” (J Nat Prod, 1996) are described below.

Molecules are shown by their SMILES.

`CC(C)=CC[C@]12C(=O)C=CC(=O)[C@]13CC(C)=C[C@H]2c1cc(O)ccc1O3` [EHRETIANONE]: the Activity was 43.3% in series [1]; 13.3% in series [2]; “Non-toxic” with Mus musculus; 26.7% in series [3]; 21.7% in series [4]; 38.3% in series [5]. In addition, the figures for the Activity in series [6] and in series [7] were 45% and 16.7%, respectively.
